We go through 1 molecule from patent US4578498A, “Phenylethylene derivatives and their use as drugs” (BASF Aktiengesellschaft, priority 1982, dated 1986).

The subject of one data set is comedos. As to the kind of experiment: Comedolytic activity on tar-induced comedos of rabbit ears. It counts as in vivo, albino rabbits. As to conditions: Oryctolagus cuniculus, 336 h; concentration 0.1%, topical, rabbit ear, two weeks; read-out: Comedolytic activity in % (decrease in number of comedos vs control ear). How it is done:
The development of comedos was induced by one topical application of 0.5 ml per day, onto both ears of albino rabbits, of 5% of tar in Polyan® (ester of lanolin alcohol and linolenic acid, produced by Amerchol Corp., U.S.A.), the application being carried out on 5 successive days per week over a period of two weeks. Thereafter, the test substances in ethanol/propylene glycol (70:30, v/v, 0.5 ml) were applied topically onto the inner skin area of one ear of each rabbit once per day on 5 successive days per week over a period of two weeks. The second ear of each animal served as an untreated control.
After further treatment for 72 hours with the test substance, the rabbits were sacrificed. A skin sample of about 6 cm^2 was taken from each auricle just outside the oratory passage, and this sample was divided into sections of about 1 cm^2. These pieces of skin were immersed for 2 minutes in warm water at 60° C. The epidermis was carefully peeled off using the flat end of a spatula and a small forceps, and was placed, dermal side up, on the slide. After drying in air overnight, the test strips were assessed under a stereomicroscope. […] The comedos were recognizable as discrete, cylindrical to round keratose particles which were of similar appearance and whose size and number were proportional to the activity of the test substance. The comedolytic effect was determined as the decrease in the number of comedos, in %, compared with the control ear (cf. Table 2).

The subject of data set [1] is white male New Zealand rabbits. As to conditions: rabbit, in vivo. Here is the method: 5. The toleration of the test substances after topical administration was determined in experiments with 6 white male New Zealand rabbits in each case. In the case of each test animal, an area of about 6 cm^2 on the back was shaved. The test substances were dissolved in ethanol/propylene glycol (70:30, v/v), and 0.2 ml of this solution was applied with an automatic micropipette on 9 successive days by carefully rubbing the solution into a particular point twice daily at 6-hour intervals.
Before each application in the morning, all test areas were assessed subjectively in respect of erythemas and scaling, a numerical scale from 0 to 3 being employed (0=no reaction, 1=mild, 2=moderate and 3=severe). The average erythema formation and scaling gives the relative irritant level of the test substances in comparison with vitamin A acid.

The next data set concerns tracheal epithelium. As to the kind of experiment: Elimination of keratinization in tracheal cultures (antitumor action). The settings on record: Mesocricetus auratus, 240 h; hamster tracheal culture, 10 days, serum-free; extrapolated from dose-effect curves; read-out: ED50 (molar dose which suppresses keratinization in half the cultures) (converted). In kind it is cell-based, hamster. The text has this:
The test model is used to determine the intrinsic property of the novel compounds of increasing the differentiation of epithelial cells. The great significance of this screening method in predicting the potential use of a new retinoid for the prevention of tumors in epithelial tissue is generally recognized. Moreover, it is known that every in vitro test system has disadvantages in respect of the prediction of in vivo activity. Apart from these basic restrictions, tracheal cell cultures are one of the most useful methods of determining the biological activity of novel retinoids.
The ability of the test substances to eliminate keratinization in a defined in vitro system was determined. Tracheae of hamsters at a very early stage of vitamin A deficiency were used for culture. […] Their average weight was from 47 to 52 g. The tracheal epithelium was in general slightly columnar or pavement-like and had only isolated areas of squamous metaplasia. Each trachea was opened along the membrane-like dorsal wall, from the larynx to the carina, and cultured in a serum-free medium (CMRL-1066 supplemented by 1.0 μg/ml of crystalline bovine insulin, 0.1 μg/ml of hydrocortisone hemisuccinate, 2mM of glutamine, 100 units/ml of penicillin and 100 μg/ml of streptomycin). The cultures were aerated with a mixture of 50% of oxygen, 45% of nitrogen and 5% of carbon dioxide, and the culture dishes were shaken gently to bring the tracheae into contact with the gas and the culture medium. All tracheae were initially kept for 3 days in the culture medium without the addition of retinoid. After this period, some tracheae were removed. […] The remaining tracheae were divided into groups, which were then treated with the following additives:
(a) The test substance dissolved in spectroscopically pure dimethylsulfoxide (the final concentration of dimethylsulfoxide in the culture medium was never greater than 0.1%).
(b) An equivalent amount of dimethylsulfoxide without a further additive.
The nutrient medium was changed three times per week. After culture for 10 days, the remaining tracheae were worked up by being fixed in 10% strength buffered formaldehyde solution and embedded in paraffin. […] Dose-effect curves of the novel compounds were recorded. Table 1 below gives the extrapolated molar doses which suppress keratinization in half the cultures (ED 50%).

Data set [2] relates to leukemia cells of patients having promyelocytic leukemia. Nature of the data set: Induction of cell differentiation in promyelocytic leukemia cells. It counts as cell-based, human (patients).
Data set [3] has as its system utriculi in the Rhino mouse. Nature of the data set: Reduction of the number of utriculi in the Rhino mouse model. In kind it is in vivo, Rhino mice. As to conditions: concentration 0.1%, Rhino mouse; read-out: Decrease in % (number of utriculi / cysts).

Structures are written as SMILES.

Take `C/C(=C\c1ccc(C(=O)O)cc1)c1cc2c(cc1C)C(C)(C)CCC2(C)C` [Example 2, E-4-[2-methyl-2-(1,1,4,4,6-pentamethyl-1,2,3,4-tetrahydronaphth-7-yl)-vinyl]-benzoic acid]: the inhibition in vivo at 0.1 % with comedos is 73%. In data set [1], this molecule gave an Erythema of 2.8 and a Scaling of 2.7. The IC50 with tracheal epithelium is 0.01 nM. In data set [2], the “induction of cell differentiation to give mature granulocytes” value is reported as “induce cell differentiation to give mature granulocytes”. Moreover, the inhibition in vivo at 0.1 % in data set [3] was found to be 68%.
